Experimental data from ChEMBL document CHEMBL5042477, “Potent Cyclic Peptide Inhibitors of FXIIa Discovered by mRNA Display with Genetic Code Reprogramming” (J Med Chem, 2021).
Where a SMILES comes first, the peptide text is derived from it. Bridges are numbered along the chain shown (N, C = ends). [ ]: non-standard residue; d: D form. Phe(4-CF3) = N[C@@H](Cc1ccc(C(F)(F)F)cc1)C(=O)O; Phe(2-CF3) = N[C@@H](Cc1ccccc1C(F)(F)F)C(=O)O; Tyr(3-F) = N[C@@H](Cc1ccc(O)c(F)c1)C(=O)O; Phe(3-CN) = N#Cc1cccc(C[C@H](N)C(=O)O)c1; Phe(2-CN) = N#Cc1ccccc1C[C@H](N)C(=O)O; Phe(4-F) = N[C@@H](Cc1ccc(F)cc1)C(=O)O; 2Nal = N[C@@H](Cc1ccc2ccccc2c1)C(=O)O; hTyr = N[C@@H](CCc1ccc(O)cc1)C(=O)O; hPhe = N[C@@H](CCc1ccccc1)C(=O)O; 3Pal = N[C@@H](Cc1cccnc1)C(=O)O; Cha = N[C@@H](CC1CCCCC1)C(=O)O; Agb = N=C(N)NCC[C@H](N)C(=O)O

Biological target: T1, Coagulation factor XII (Homo sapiens, UniProt P00748)
T1 sequence (P00748 whole entry): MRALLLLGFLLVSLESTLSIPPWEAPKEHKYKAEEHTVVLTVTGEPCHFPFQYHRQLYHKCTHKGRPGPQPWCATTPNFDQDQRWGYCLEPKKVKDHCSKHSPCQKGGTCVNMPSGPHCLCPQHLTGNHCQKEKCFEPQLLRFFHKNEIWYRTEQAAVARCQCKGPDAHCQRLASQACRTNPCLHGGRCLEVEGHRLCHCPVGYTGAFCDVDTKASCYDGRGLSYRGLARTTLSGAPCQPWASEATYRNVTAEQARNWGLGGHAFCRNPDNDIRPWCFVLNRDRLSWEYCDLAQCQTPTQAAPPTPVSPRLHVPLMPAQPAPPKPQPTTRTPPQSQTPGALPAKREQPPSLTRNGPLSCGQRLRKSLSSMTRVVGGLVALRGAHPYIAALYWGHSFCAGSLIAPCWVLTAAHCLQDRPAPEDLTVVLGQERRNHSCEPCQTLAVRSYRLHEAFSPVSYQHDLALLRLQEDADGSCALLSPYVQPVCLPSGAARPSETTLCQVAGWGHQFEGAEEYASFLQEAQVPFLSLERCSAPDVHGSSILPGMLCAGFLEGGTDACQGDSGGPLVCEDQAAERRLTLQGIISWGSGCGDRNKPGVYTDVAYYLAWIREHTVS
Assay: Inhibition of human factor 12a using H-D-Pro-Phe-Arg-p-nitroanilide as chromogenic substrate assessed as liberation of p-nitroaniline measured every 5 mins for 60 min by multimode plate reader analysis

Row | SMILES | IC50
1 | CC(C)C[C@@H]1NC(=O)[C@H](CCc2ccccc2)NC(=O)CSC[C@@H](C(N)=O)NC(=O)CNC(=O)CNC(=O)[C@H](CCCNC(=N)N)NC(=O)[C@H](CC(=O)O)NC(=O)[C@H](CCCCN)NC(=O)[C@@H]2CCCN2C(=O)[C@H](CCCNC(=N)N)NC(=O)[C@H](Cc2ccccc2)NC(=O)[C@H](CCCNC(=N)N)NC1=O ({CH2CO}-[hPhe]LRFRPKDRGGC-NH2; thioether N-12) | 410000 nM
2 | CC(C)C[C@@H]1NC(=O)[C@H](Cc2cccc(C#N)c2)NC(=O)CSC[C@@H](C(N)=O)NC(=O)CNC(=O)CNC(=O)[C@H](CCCNC(=N)N)NC(=O)[C@H](CC(=O)O)NC(=O)[C@H](CCCCN)NC(=O)[C@@H]2CCCN2C(=O)[C@H](CCCNC(=N)N)NC(=O)[C@H](Cc2ccccc2)NC(=O)[C@H](CCCNC(=N)N)NC1=O ({CH2CO}-[Phe(3-CN)]LRFRPKDRGGC-NH2; thioether N-12) | 3100 nM
3 | CC(C)C[C@@H]1NC(=O)[C@H](Cc2ccc(O)cc2)NC(=O)CSC[C@@H](C(N)=O)NC(=O)CNC(=O)CNC(=O)[C@H](C)NC(=O)[C@H](CC(N)=O)NC(=O)[C@H]([C@@H](C)O)NC(=O)[C@@H]2CCCN2C(=O)[C@H](CCCCN)NC(=O)[C@H](CC(C)C)NC(=O)[C@H](CCCNC(=N)N)NC1=O ({CH2CO}-YLRLKPTNAGGC-NH2; thioether N-12) | 1000 nM
4 | CC(C)C[C@@H]1NC(=O)[C@H](Cc2ccc(C(F)(F)F)cc2)NC(=O)CSC[C@@H](C(N)=O)NC(=O)CNC(=O)CNC(=O)[C@H](CCCNC(=N)N)NC(=O)[C@H](CC(=O)O)NC(=O)[C@H](CCCCN)NC(=O)[C@@H]2CCCN2C(=O)[C@H](CCCNC(=N)N)NC(=O)[C@H](Cc2ccccc2)NC(=O)[C@H](CCCNC(=N)N)NC1=O ({CH2CO}-[Phe(4-CF3)]LRFRPKDRGGC-NH2; thioether N-12) | 74000 nM
5 | CC(C)C[C@@H]1NC(=O)[C@H](Cc2ccccc2)NC(=O)CSC[C@@H](C(N)=O)NC(=O)CNC(=O)CNC(=O)[C@H](CCCNC(=N)N)NC(=O)[C@H](CC(=O)O)NC(=O)[C@H](CCCCN)NC(=O)[C@@H]2CCCN2C(=O)[C@H](CCCNC(=N)N)NC(=O)[C@H](Cc2ccccc2)NC(=O)[C@H](CCCNC(=N)N)NC1=O ({CH2CO}-FLRFRPKDRGGC-NH2; thioether N-12) | 480 nM
6 | CC(C)C[C@@H]1NC(=O)[C@H](CC2CCCCC2)NC(=O)CSC[C@@H](C(N)=O)NC(=O)CNC(=O)CNC(=O)[C@H](CCCNC(=N)N)NC(=O)[C@H](CC(=O)O)NC(=O)[C@H](CCCCN)NC(=O)[C@@H]2CCCN2C(=O)[C@H](CCCNC(=N)N)NC(=O)[C@H](Cc2ccccc2)NC(=O)[C@H](CCCNC(=N)N)NC1=O ({CH2CO}-[Cha]LRFRPKDRGGC-NH2; thioether N-12) | 140000 nM
7 | CC(C)C[C@@H]1NC(=O)[C@H](Cc2ccc(O)cc2)NC(=O)CSC[C@@H](C(N)=O)NC(=O)CNC(=O)CNC(=O)[C@H](CCC(N)=O)NC(=O)[C@H](CC(N)=O)NC(=O)[C@H]([C@@H](C)O)NC(=O)[C@@H]2CCCN2C(=O)[C@H](CCCCN)NC(=O)[C@H](C)NC(=O)[C@H](CCCNC(=N)N)NC1=O ({CH2CO}-YLRAKPTNQGGC-NH2; thioether N-12) | 13000 nM
8 | CC(C)C[C@@H]1NC(=O)[C@H](Cc2ccc(O)cc2)NC(=O)CSC[C@@H](C(N)=O)NC(=O)CNC(=O)CNC(=O)[C@H](CCCNC(=N)N)NC(=O)[C@H](CC(=O)O)NC(=O)[C@H](CCCCN)NC(=O)[C@@H]2CCCN2C(=O)[C@H](CCCNC(=N)N)NC(=O)[C@H](Cc2ccccc2)NC(=O)[C@H](CCNC(=N)N)NC1=O ({CH2CO}-YL[Agb]FRPKDRGGC-NH2; thioether N-12) | 587 nM
9 | CC(C)C[C@@H]1NC(=O)[C@H](Cc2ccc(O)cc2)NC(=O)CSC[C@@H](C(N)=O)NC(=O)CNC(=O)CNC(=O)[C@H](CCCNC(=N)N)NC(=O)[C@H](CC(=O)O)NC(=O)[C@H](CCCCN)NC(=O)[C@@H]2CCCN2C(=O)[C@H](CCCNC(=N)N)NC(=O)[C@H](Cc2cccnc2)NC(=O)[C@H](CCCNC(=N)N)NC1=O ({CH2CO}-YLR[3Pal]RPKDRGGC-NH2; thioether N-12) | 170 nM
10 | CC(C)C[C@@H]1NC(=O)[C@H]([C@@H](C)O)NC(=O)[C@H](Cc2ccccc2)NC(=O)[C@@H](CCCNC(=N)N)NC(=O)[C@@H](CC(C)C)NC(=O)[C@@H](Cc2ccc(O)cc2)NC(=O)CSC[C@@H](C(N)=O)NC1=O | 3800 nM
11 | CC(C)C[C@@H]1NC(=O)[C@H](Cc2ccc(O)cc2)NC(=O)CSC[C@@H](C(N)=O)NC(=O)CNC(=O)CNC(=O)[C@H](CCCNC(=N)N)NC(=O)[C@H](CC(=O)O)NC(=O)[C@H](CCCCN)NC(=O)[C@@H]2CCCN2C(=O)[C@H](CCCNC(=N)N)NC(=O)[C@H](Cc2ccccc2C#N)NC(=O)[C@H](CCCNC(=N)N)NC1=O ({CH2CO}-YLR[Phe(2-CN)]RPKDRGGC-NH2; thioether N-12) | 120 nM
12 | CC(C)C[C@@H]1NC(=O)[C@H](Cc2ccccc2C(F)(F)F)NC(=O)CSC[C@@H](C(N)=O)NC(=O)CNC(=O)CNC(=O)[C@H](CCCNC(=N)N)NC(=O)[C@H](CC(=O)O)NC(=O)[C@H](CCCCN)NC(=O)[C@@H]2CCCN2C(=O)[C@H](CCCNC(=N)N)NC(=O)[C@H](Cc2ccccc2)NC(=O)[C@H](CCCNC(=N)N)NC1=O ({CH2CO}-[Phe(2-CF3)]LRFRPKDRGGC-NH2; thioether N-12) | 120000 nM
13 | CC(C)C[C@@H]1NC(=O)[C@H](Cc2ccc(O)cc2)NC(=O)CSC[C@@H](C(N)=O)NC(=O)CNC(=O)CNC(=O)[C@H](CCCNC(=N)N)NC(=O)[C@H](CC(=O)O)NC(=O)[C@H](CCCCN)NC(=O)[C@@H]2CCCN2C(=O)[C@H](CCCNC(=N)N)NC(=O)[C@H](CCc2ccc(O)cc2)NC(=O)[C@H](CCCNC(=N)N)NC1=O ({CH2CO}-YLR[hTyr]RPKDRGGC-NH2; thioether N-12) | 560 nM
14 | CC(C)C[C@@H]1NC(=O)[C@H](Cc2ccc(O)c(F)c2)NC(=O)CSC[C@@H](C(N)=O)NC(=O)CNC(=O)CNC(=O)[C@H](CCCNC(=N)N)NC(=O)[C@H](CC(=O)O)NC(=O)[C@H](CCCCN)NC(=O)[C@@H]2CCCN2C(=O)[C@H](CCCNC(=N)N)NC(=O)[C@H](Cc2ccccc2)NC(=O)[C@H](CCCNC(=N)N)NC1=O ({CH2CO}-[Tyr(3-F)]LRFRPKDRGGC-NH2; thioether N-12) | 150 nM
15 | CC(C)C[C@@H]1NC(=O)[C@H](Cc2ccc(O)cc2)NC(=O)CSC[C@@H](C(N)=O)NC(=O)[C@H](C)NC(=O)CNC(=O)[C@H](CCCNC(=N)N)NC(=O)[C@H](CC(=O)O)NC(=O)[C@H](CCCCN)NC(=O)[C@@H]2CCCN2C(=O)[C@H](CCCNC(=N)N)NC(=O)[C@H](Cc2ccccc2)NC(=O)[C@H](CCCNC(=N)N)NC1=O ({CH2CO}-YLRFRPKDRGAC-NH2; thioether N-12) | 15000 nM
16 | CC(C)C[C@@H]1NC(=O)[C@H](Cc2ccc(O)cc2)NC(=O)CSC[C@@H](C(N)=O)NC(=O)CNC(=O)CNC(=O)[C@H](CCCNC(=N)N)NC(=O)[C@H](CC(=O)O)NC(=O)[C@H](CCCCN)NC(=O)[C@@H]2CCCN2C(=O)[C@H](CCCNC(=N)N)NC(=O)[C@H](Cc2ccccc2C(F)(F)F)NC(=O)[C@H](CCCNC(=N)N)NC1=O ({CH2CO}-YLR[Phe(2-CF3)]RPKDRGGC-NH2; thioether N-12) | 42 nM
17 | CC(C)C[C@@H]1NC(=O)[C@H](Cc2ccc(O)cc2)NC(=O)CSC[C@@H](C(N)=O)NC(=O)CNC(=O)CNC(=O)[C@H](CCCNC(=N)N)NC(=O)[C@H](CC(=O)O)NC(=O)[C@H](CCCCN)NC(=O)[C@@H]2CCCN2C(=O)[C@H](CCCNC(=N)N)NC(=O)[C@H](Cc2ccccc2)NC(=O)[C@H](C)NC1=O ({CH2CO}-YLAFRPKDRGGC-NH2; thioether N-12) | 110000 nM
18 | COc1ccc(C[C@@H]2NC(=O)CSC[C@@H](C(N)=O)NC(=O)CNC(=O)CNC(=O)[C@H](CCCNC(=N)N)NC(=O)[C@H](CC(=O)O)NC(=O)[C@H](CCCCN)NC(=O)[C@@H]3CCCN3C(=O)[C@H](CCCNC(=N)N)NC(=O)[C@H](Cc3ccccc3)NC(=O)[C@H](CCCNC(=N)N)NC(=O)[C@H](CC(C)C)NC2=O)cc1 ({CH2CO}-Y(Me)LRFRPKDRGGC-NH2; thioether N-12) | 530 nM
19 | CC(C)C[C@@H]1NC(=O)[C@H](Cc2ccc(O)cc2)NC(=O)CSC[C@@H](C(N)=O)NC(=O)CNC(=O)CNC(=O)[C@H](CCCNC(=N)N)NC(=O)[C@H](CC(=O)O)NC(=O)[C@H](CCCCN)NC(=O)[C@@H]2CCCN2C(=O)[C@H](CCCNC(=N)N)NC(=O)[C@H](Cc2ccc3ccccc3c2)NC(=O)[C@H](CCCNC(=N)N)NC1=O ({CH2CO}-YLR[2Nal]RPKDRGGC-NH2; thioether N-12) | 50 nM
20 | CC(C)C[C@@H]1NC(=O)[C@H](Cc2ccc(F)cc2)NC(=O)CSC[C@@H](C(N)=O)NC(=O)CNC(=O)CNC(=O)[C@H](CCCNC(=N)N)NC(=O)[C@H](CC(=O)O)NC(=O)[C@H](CCCCN)NC(=O)[C@@H]2CCCN2C(=O)[C@H](CCCNC(=N)N)NC(=O)[C@H](Cc2ccccc2)NC(=O)[C@H](CCCNC(=N)N)NC1=O ({CH2CO}-[Phe(4-F)]LRFRPKDRGGC-NH2; thioether N-12) | 470 nM
21 | CC(C)C[C@@H]1NC(=O)[C@H](Cc2ccc(O)cc2)NC(=O)CSC[C@@H](C(N)=O)NC(=O)[C@H](C)NC(=O)CNC(=O)[C@H](CCC(N)=O)NC(=O)[C@H](CC(N)=O)NC(=O)[C@H]([C@@H](C)O)NC(=O)[C@@H]2CCCN2C(=O)[C@H](CCCCN)NC(=O)[C@H](CC(C)C)NC(=O)[C@H](CCCNC(=N)N)NC1=O ({CH2CO}-YLRLKPTNQGAC-NH2; thioether N-12) | 73000 nM
